Common to all, as to assay: ≥ marks a high value that may be exact or a test limit, other limits are often not marked, values filed in µg/mL are converted to µM
For experiment [1], the system named is Pseudomonas aeruginosa ATCC 27853.
Experiment [2] deals with Bacillus subtilis CMCC 63501.
Experiment [3] has as its system Staphylococcus aureus ATCC 29213.
Experiment [4] relates to Escherichia coli ATCC 25922.
The subject of experiment [5] is Salmonella typhimurium ATCC 7731.
For experiment [6], the system named is Staphylococcus epidermidis ATCC 12228.
Experiment [7] has as its system Staphylococcus aureus ATCC 43300.
The subject of another experiment is Escherichia coli UB1005.
For experiment [8], the system named is Salmonella enterica subsp. enterica serovar Pullorum C79-13.
Experiment [9] deals with Candida albicans ATCC 20032.
In experiment [10] the test system is Bacillus subtilis ATCC 6633.
The test system of experiment [11] is Staphylococcus aureus ATCC 25923.
The test system of experiment [12] is Salmonella enterica subsp. enterica serovar Typhimurium ATCC 14028.

Usually MIC stands for the lowest concentration found to suppress growth. A high value points to a less susceptible organism.

≈ marks a conversion by molar mass, not a printed value. Where “and” joins values, the source holds several entries; their conditions need not be identical. Equal entries are not always repeated.

Regarding `CC(C)C[C@H](NC(=O)[C@H](CCCCN)NC(=O)[C@H](CCCCN)NC(=O)[C@H](C)NC(=O)[C@@H](NC(=O)[C@H](CCCCN)NC(=O)[C@H](CO)NC(=O)[C@H](CC(C)C)NC(=O)[C@@H](N)Cc1c[nH]c2ccccc12)[C@@H](C)O)C(N)=O` [WLSKTAKKL], the MIC in [1] is greater than 128 µM; in experiment [2], no less than 128 µM; in experiment [3] it was greater than 128 µM; in experiment [4], greater than 128 µM; in experiment [5] it was no less than 128 µM; in [6] it was greater than 128 µM. Also, the MIC in [7] is greater than 128 µM; in the experiment on Escherichia coli UB1005, no less than 128 µM; in [8], no less than 128 µM.
As to `CC[C@H](C)[C@H](NC(=O)CN)C(=O)NCC(=O)NCC(=O)N[C@@H](C)C(=O)N[C@@H](CC(C)C)C(=O)N[C@@H](CC(C)C)C(=O)N[C@@H](CO)C(=O)N[C@H](C(=O)NCC(=O)N[C@@H](CCCCN)C(=O)N[C@@H](CC(C)C)C(=O)N[C@@H](C)C(=O)N[C@@H](CC(C)C)C(=O)N[C@@H](CCCCN)C(=O)NCC(=O)N[C@@H](CC(C)C)C(=O)N[C@@H](C)C(=O)N[C@@H](CC(N)=O)C(=O)N[C@H](C(=O)N[C@@H](CC(C)C)C(=O)N[C@@H](C)C(=O)N[C@@H](CC(=O)O)C(=O)N[C@@H](CCCCN)C(=O)N[C@@H](Cc1ccccc1)C(=O)N[C@@H](C)C(=O)N[C@@H](CC(N)=O)C(N)=O)C(C)C)C(C)C` [GIGGALLSVGKLALKGLANVLADKFAN], the MIC in experiment [9] is 14.4 µM (≈ 37.5 µg/mL); in experiment [10], 14.4 µM (≈ 37.5 µg/mL); in experiment [4], greater than 38.3 µM; in experiment [11], 1.8 µM (≈ 4.7 µg/mL).
As to `CC[C@H](C)[C@H](NC(=O)CNC(=O)[C@H](C)NC(=O)[C@H](C)NC(=O)[C@@H](NC(=O)[C@@H](NC(=O)[C@H](CC(N)=O)NC(=O)[C@@H](NC(=O)[C@H](C)NC(=O)[C@@H](NC(=O)[C@@H]1CCCN1C(=O)[C@@H](NC(=O)[C@H](CC(C)C)NC(=O)[C@@H]1CCCN1C(=O)[C@H](Cc1c[nH]c2ccccc12)NC(=O)[C@H](Cc1ccccc1)NC(=O)[C@H](CCCN=C(N)N)NC(=O)[C@@H](N)CCCCN)C(C)C)C(C)C)[C@@H](C)CC)[C@@H](C)O)C(C)C)C(=O)N[C@@H](CC(N)=O)C(=O)N[C@@H](CC(C)C)C(=O)N[C@@H](Cc1ccc(O)cc1)C(=O)N[C@@H](CCCCN)C(=O)N[C@@H](C)C(=O)N[C@H](C(=O)N[C@@H](CCCN=C(N)N)C(=O)N[C@@H](CCCN=C(N)N)C(=O)N[C@@H](CCCCN)C(N)=O)[C@@H](C)CC` [KRFWPLVPVAINTVAAGINLYKAIRRK], the MIC was 4 µM and > 2 µM in experiment [1]; 2 µM (≈ 6.19 µg/mL) in experiment [2]; 4 µM (≈ 12.4 µg/mL) in experiment [3]; 2 µM and 4 µM in [4]; 4 µM (≈ 12.4 µg/mL) in experiment [5]; 2 µM (≈ 6.19 µg/mL) in experiment [6]. Further, the MIC (in the experiment with Escherichia coli UB1005; in [12]) was 4 µM (≈ 12.4 µg/mL) each time.
In the case of `CC[C@H](C)[C@H](N)C(=O)N[C@@H](CO)C(=O)NCC(=O)N1CCC[C@H]1C(=O)N[C@H](C(=O)N[C@@H](CC(C)C)C(=O)NCC(=O)N[C@@H](CC(C)C)C(=O)N[C@H](C(=O)NCC(=O)N[C@@H](CC(N)=O)C(=O)N[C@@H](C)C(=O)N[C@@H](CC(C)C)C(=O)NCC(=O)NCC(=O)N[C@@H](CC(C)C)C(=O)N[C@H](C(=O)N[C@@H](CCCCN)C(=O)N[C@@H](CCCCN)C(=O)N[C@H](C(N)=O)[C@@H](C)CC)[C@@H](C)CC)C(C)C)C(C)C` [ISGPVLGLVGNALGGLIKKI], the MIC in experiment [9] is no less than 52.1 µM; in [10] it was no less than 52.1 µM; in experiment [4] it was greater than 52.1 µM; in experiment [11] it was greater than 52.1 µM.

The values are drawn from DBAASP.
